Molecules are shown by their SMILES.

Test [1] deals with T1, HIV-1 protease (Human immunodeficiency virus type 1 group M subtype B, UniProt P04585). As to the kind of experiment: biochemical. The note with it: read-out: HIV-1 FITC KI. Put shortly:
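Enzyme (40 nM stock) and substrate (200 μM stock) incubated with inhibitor, 24–48 two-fold serial concentrations, for 90 min at room temperature, then quenched with avidin beads. Nonlinear least-squares analysis gives Ki; a known-Ki inhibitor validates each run.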

The target of test [2] is T1, HIV-1 protease. As to the kind of experiment: biochemical. The note with it: for inhibition at 0.37 µM: read-out: HIV-1 Protease % Inhib, dose 0.370 uM; for inhibition at 1.1 µM: read-out: HIV-1 Protease % Inhib, dose 1.100 uM; for inhibition at 3.3 µM: read-out: HIV-1 Protease % Inhib, dose 3.300 uM; for inhibition at 10 µM: read-out: HIV-1 Protease % Inhib, dose 10.000 uM; for inhibition at 30 µM: read-out: HIV-1 Protease % Inhib, dose 30.000 uM; for inhibition at 0.123 µM: read-out: HIV-1 Protease % Inhib, dose 0.123 uM. The procedure, abridged: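 Percent inhibition derived from fluorescent cleavage product separated by filtration after streptavidin-bead capture of intact biotin/FITC substrate. Reaction: enzyme (10 μl, 0.1 μM stock) with substrate (20 μl, 0.2 μM stock) and compound, 1 h at room temperature in dark, pH 5.5 acetate buffer with 1.0 M NaCl and 0.05% NP-40.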

As usually defined, the Ki is the dissociation constant of the complex between target and ligand, obtained from inhibition or displacement. For the compound `O=c1oc2c(c(O)c1C(c1ccccc1)C1CC1)CCCCCC2CC1CCCOC1` (stereo not shown) [Example 179, 3-(Cyclopropylphenylmethyl)-5,6,7,8,9,10-hexahydro-4-hydroxy-10-[(tetrahydro-2H-pyran-3-yl)methyl]-2H-cycloocta[b]pyran-2-one], in test [1], the Ki was determined as 19 nM. Also, in test [2], the inhibition at 0.37 µM is 38.6%, the inhibition at 1.1 µM came out at 71.6%, the inhibition at 3.3 µM was found to be 87.2% and the inhibition at 10 µM turned out to be 93.7%. Further, in test [2], the inhibition at 30 µM was 91.1%.
On to `O=c1oc2c(c(O)c1C(c1ccccc1)C1CC1)CCCCC2Cc1ccccc1` (stereo not shown) [Example 182, 3-(Cyclopropylphenylmethyl)-6,7,8,9-tetrahydro-4-hydroxy-9-(phenylmethyl)-cyclohepta[b]pyran-2(5H)-one], for which the Ki in test [1] was 117 nM. Moreover, in test [2], the inhibition at 0.37 µM was determined as 22.3%, the inhibition at 1.1 µM was determined as 51%, the inhibition at 3.3 µM amounted to 83.7% and the inhibition at 10 µM was found to be 99.2%. For the same compound, the inhibition at 30 µM in test [2] was 98.7%.
Consider `CC(C)CC1CCCCc2c1oc(=O)c(C(c1ccccc1)C1CC1)c2O` (stereo not shown) [Example 183, 3-(Cyclopropylphenylmethyl)-6,7,8,9-tetrahydro4-hydroxy-9-(2-methylpropyl)-cyclohepta[b]pyran-2(5H)-one], for which the Ki in test [1] amounted to 13 nM. For the same compound, in test [2], the inhibition at 0.123 µM was 20.9%, the inhibition at 0.37 µM was determined as 56.5%, the inhibition at 1.1 µM is 85.5% and the inhibition at 3.3 µM amounted to 97.3%. Further, in test [2], the inhibition at 10 µM is 95.8% and the inhibition at 30 µM was found to be 89.7%.
Take `CC(C)CCC1CCCCc2c1oc(=O)c(C(c1ccccc1)C1CC1)c2O` (stereo not shown) [Example 184, 3-(Cyclopropylphenylmethyl)-6,7,8,9-tetrahydro4-hydroxy-9-(3-methylbutyl)-cyclohepta[b]pyran-2(5H)-one]: the Ki in test [1] amounted to 46 nM. Moreover, in test [2], the inhibition at 0.37 µM is 18%, the inhibition at 1.1 µM was determined as 60.7%, the inhibition at 3.3 µM stood at 86% and the inhibition at 10 µM amounted to 96.5%. Also, the inhibition at 30 µM in test [2] turned out to be 93.1%.
For the compound `CCC1CCCCc2c1oc(=O)c(C(c1ccccc1)C1CC1)c2O` (stereo not shown) [Example 185, 3-(Cyclopropylphenylmethyl)-9-ethyl-6,7,8,9-tetrahydro-4-hydroxy-cyclohepta[b]pyran-2(5H)-one], the Ki in test [1] came out at 22 nM. For the same compound, in test [2], the inhibition at 0.123 µM was found to be 18.7%, the inhibition at 0.37 µM is 40.3%, the inhibition at 1.1 µM is 71.5% and the inhibition at 3.3 µM was 92.6%. For the same compound, in test [2], the inhibition at 10 µM amounted to 97.6% and the inhibition at 30 µM was 91.8%.
For the compound `CCCC1CCCCc2c1oc(=O)c(C(c1ccccc1)C1CC1)c2O` (stereo not shown) [Example 188, 3-(Cyclopropylphenylmethyl)-6,7,8,9-tetrahydro-4-hydroxy-9-propyl-cyclohepta[b]pyran-2(5H)-one], the Ki in test [1] stood at 26 nM. Further, in test [2], the inhibition at 0.123 µM was 27.3%, the inhibition at 0.37 µM amounted to 57%, the inhibition at 1.1 µM worked out at 82.2% and the inhibition at 3.3 µM worked out at 88.4%. In test [2], the inhibition at 10 µM was found to be 88.3% and the inhibition at 30 µM stood at 84.5%.
In the case of `O=c1oc2c(c(O)c1C(c1ccccc1)C1CC1)CCCCC2CC1CCCO1` (stereo not shown) [Example 189, 3-(Cyclopropylphenylmethyl)-6,7,8,9-tetrahydro4-hydroxy-9-[(tetrahydro-2-furanyl)methyl]-cyclohepta[b]pyran-2(5H)-one], in test [1], the Ki was 36 nM. In test [2], the inhibition at 0.123 µM amounted to 15.7%, the inhibition at 0.37 µM is 37.6%, the inhibition at 1.1 µM came out at 69.8% and the inhibition at 3.3 µM was determined as 89.3%. In test [2], the inhibition at 10 µM is 98.1% and the inhibition at 30 µM was 99.3%.
Regarding `COCCC1CCCCc2c1oc(=O)c(C(c1ccccc1)C1CC1)c2O` (stereo not shown) [Example 194, 3-(Cyclopropylphenylmethyl)-6,7,8,9-tetrahydro4-hydroxy-9-(2-methoxyethyl)-cyclohepta[b]pyran-2(5H)-one], the Ki in test [1] came to 28 nM. In addition, the “HIV-1 Protease % Inhib” value in test [2] (dose 1.100 uM) is reported as 81.89%; in test [2] (dose 3.300 uM) it was 102.84%; in test [2] (dose 10.000 uM) it was 108.17%; in test [2] (dose 30.000 uM) it was 107.45%. Also, the inhibition at 0.37 µM in test [2] came to 39.7%.
As to `O=c1oc2c(c(O)c1C(c1ccccc1)C1CC1)CCCCC2C(O)C1CC1` (stereo not shown) [Example 195, 9-(Cyclopropylhydroxymethyl)-3-(cyclopropylphenylmethyl)-6,7,8,9-tetrahydro-4-hydroxy-cyclohepta[b]pyran-2(5H)-one], the Ki in test [1] was 22 nM. For the same compound, in test [2], the inhibition at 0.37 µM worked out at 23.5%, the inhibition at 1.1 µM was determined as 71.4%, the inhibition at 3.3 µM was 90.8% and the inhibition at 10 µM was 108%. Besides, the inhibition at 30 µM in test [2] was 117%.
For `CC(C)(C)OC(=O)NCCC(=O)Nc1cccc(C(c2c(O)c3c(oc2=O)CCCCCC3)C2CC2)c1` (stereo not shown) [Example 196, Carbamic acid, [3-[[3-[cyclopropyl(5,6,7,8,9,10-hexahydro-4-hydroxy-2-oxo-2H-cycloocta[b]pyran-3-yl)methyl]phenyl]amino]-3-oxopropyl]-, 1,1-dimethylethyl ester], the Ki in test [1] was determined as 3 nM. Also, in test [2], the inhibition at 0.123 µM is 68%, the inhibition at 0.37 µM came out at 81.2%, the inhibition at 1.1 µM is 91.8% and the inhibition at 3.3 µM is 97.9%. Besides, in test [2], the inhibition at 10 µM amounted to 105% and the inhibition at 30 µM was 95.8%.
For `O=C(CCn1ccc2ccccc21)Nc1cccc(C(c2c(O)c3c(oc2=O)CCCCCC3)C2CC2)c1` (stereo not shown) [Example 197, 1H-Indole-1-propanamide, N-[3-[cyclopropyl(5,6,7,8,9,10-hexahydro-4-hydroxy-2-oxo-2H-cycloocta[b]pyran-3-yl)methyl]phenyl]-], the Ki in test [1] came to 14.1 nM. Further, in test [2], the inhibition at 0.123 µM stood at 34%, the inhibition at 0.37 µM came out at 65.6%, the inhibition at 1.1 µM stood at 76.6% and the inhibition at 3.3 µM amounted to 88.7%. Moreover, in test [2], the inhibition at 10 µM was 91.8% and the inhibition at 30 µM was found to be 89.6%.
On to `Cc1ccc(S(=O)(=O)n2cncc2C[C@H](NC(=O)OC(C)(C)C)C(=O)Nc2cccc(C(c3c(O)c4c(oc3=O)CCCCCC4)C3CC3)c2)cc1` (stereo partly drawn) [Example 199, Carbamic acid, [2-[[3-[cyclopropyl(5,6,7,8,9,10-hexahydro-4-hydroxy-2-oxo-2H-cycloocta[b]pyran-3-yl)methyl]phenyl]amino]-1-[[1-(S)-[(4-methylphenyl)sulfonyl]-1H-imidazol-5-yl]methyl]-2-oxoethyl]-, 1,1-dimethylethyl ester], for which the Ki in test [1] stood at 10.4 nM. Besides, in test [2], the inhibition at 0.123 µM came out at 56%, the inhibition at 0.37 µM stood at 86.5%, the inhibition at 1.1 µM was determined as 97.6% and the inhibition at 3.3 µM is 106%. Moreover, in test [2], the inhibition at 10 µM came to 114% and the inhibition at 30 µM stood at 107%.
On to `CC(C)(C)OC(=O)NCC(=O)Nc1cccc(C(c2c(O)c3c(oc2=O)CCCCCC3)C2CC2)c1` (stereo not shown) [Example 200, Carbamic acid, [2-[[3-[cyclopropyl(5,6,7,8,9,10-hexahydro-4-hydroxy-2-oxo-2H-cycloocta[b]pyran-3-yl)methyl]phenyl]amino]-2-oxyethyl]-, 1,1-dimethylethyl ester], for which the Ki in test [1] amounted to 2.9 nM. In test [2], the inhibition at 0.123 µM amounted to 64.6%, the inhibition at 0.37 µM came to 88.5%, the inhibition at 1.1 µM came to 90.9% and the inhibition at 3.3 µM was 103%. In addition, in test [2], the inhibition at 10 µM was found to be 105% and the inhibition at 30 µM worked out at 99.1%.
For `O=C(CCN1CCCCC1)Nc1cccc(C(c2c(O)c3c(oc2=O)CCCCCC3)C2CC2)c1` (stereo not shown) [Example 205, 1-Piperidinepropanamide, N-[3-[cyclopropyl(5,6,7,8,9,10-hexahydro4-hydroxy-2-oxo-2H-cycloocta[b]pyran-3-yl)methyl]phenyl]-], in test [1], the Ki is 26.1 nM. Moreover, in test [2], the inhibition at 0.123 µM was 12.6%, the inhibition at 0.37 µM came out at 56.4%, the inhibition at 1.1 µM is 76.6% and the inhibition at 3.3 µM came to 94.2%. Further, in test [2], the inhibition at 10 µM turned out to be 109% and the inhibition at 30 µM turned out to be 104%.
On to `O=C(Cc1ccccc1)Nc1cccc(C(c2c(O)c3c(oc2=O)CCCCCC3)C2CC2)c1` (stereo not shown) [Example 207, N-[3-[Cyclopropyl(5,6,7,8,9,10-hexahydro-4-hydroxy-2-oxo-2H-cycloocta[b]pyran-3-yl)methyl]phenyl]-benzacetamide], for which the Ki in test [1] worked out at 33.4 nM. Moreover, in test [2], the inhibition at 0.123 µM came to 14%, the inhibition at 0.37 µM amounted to 44.1%, the inhibition at 1.1 µM was found to be 74% and the inhibition at 3.3 µM came to 93.8%. Also, in test [2], the inhibition at 10 µM came to 83% and the inhibition at 30 µM came to 78.7%.
Take `CCCC(=O)Nc1cccc(C(c2c(O)c3c(oc2=O)CCCCCC3)C2CC2)c1` (stereo not shown) [Example 209, N-[3-[Cyclopropyl(5,6,7,8,9,10-hexahydro-4-hydroxy-2-oxo-2H-cycloocta[b]pyran-3-yl)methyl]phenyl]-butanamide]: the Ki in test [1] came out at 24.1 nM. Moreover, in test [2], the inhibition at 0.37 µM stood at 43.2%, the inhibition at 1.1 µM came to 80%, the inhibition at 3.3 µM came to 96% and the inhibition at 10 µM is 104%. For the same compound, the inhibition at 30 µM in test [2] was found to be 100%.
